Results: ChEMBL document CHEMBL1201862, “PubChem BioAssay data set” (2004)
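These data come from cells grown in 96-well plates and exposed to compound for 48 hours at five concentrations. Abbreviation: GI50, concentration required for 50% inhibition of growth.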 Calls of active or inactive are those of the source. No stated cut-off is given here; in the data, active = GI50 up to about 1.1 µM and inactive = higher.

How the values were obtained:
Experiment in all cases: DTP human tumour cell line panel, 48 h
[1] = tested on: 786-0
[2] = tested on: A498
[3] = tested on: A549
[4] = tested on: ACHN
[5] = tested on: BT-549
[6] = tested on: CAKI-1
[7] = tested on: CCRF-CEM
[8] = tested on: COLO 205
[9] = tested on: DU-145
[10] = tested on: EKVX
[11] = tested on: HCC 2998
[12] = tested on: HCT-116
[13] = tested on: HCT-15
[14] = tested on: HL-60
[15] = tested on: HOP-62
[16] = tested on: HOP-92
[17] = tested on: HT-29
[18] = tested on: Hs-578T
[19] = tested on: IGROV-1
[20] = tested on: K562
[21] = tested on: KM12
[22] = tested on: LOX IMVI
[23] = tested on: M14
[24] = tested on: MCF7
[25] = tested on: MDA-MB-231
[26] = tested on: MDA-MB-435
[27] = tested on: MDA-N
[28] = tested on: MOLT-4
[29] = tested on: Malme-3M
[30] = tested on: NCI-H226
[31] = tested on: NCI-H23
[32] = tested on: NCI-H460
[33] = tested on: NCI-H522
[34] = tested on: NCI/ADR-RES
[35] = tested on: OVCAR-3
[36] = tested on: OVCAR-4
[37] = tested on: OVCAR-5
[38] = tested on: OVCAR-8
[39] = tested on: PC-3
[40] = tested on: RPMI-8226
[41] = tested on: RXF 393
[42] = tested on: SF-268
[43] = tested on: SF-295
[44] = tested on: SF-539
[45] = tested on: SK-MEL-28
[46] = tested on: SK-MEL-2
[47] = tested on: SK-MEL-5
[48] = tested on: SK-OV-3
[49] = tested on: SN12C
[50] = tested on: SNB-19
[51] = tested on: SNB-75
[52] = tested on: SR
[53] = tested on: SW-620
[54] = tested on: T47D
[55] = tested on: TK-10
[56] = tested on: U-251
[57] = tested on: UACC-257
[58] = tested on: UACC-62
[59] = tested on: UO-31

For `CC(C)(C)c1ccc2c(c1)CNCCNCc1cc(C(C)(C)C)ccc1OCC1(CO2)COc2ccc(C(C)(C)C)cc2CNCCNCc2cc(C(C)(C)C)ccc2OC1`, the GI50 [1] was 0.25 µM (active), the GI50 [2] was 0.857 µM (active) and the GI50 [3] was 0.433 µM (active). For the same compound, the GI50 [4] was 1.6 µM (inactive), the GI50 [5] was 1.71 µM (inactive) and the GI50 [6] was 1.41 µM (inactive). For the same compound, the GI50 [7] was 0.2 µM (active), the GI50 [8] was 0.649 µM (active) and the GI50 [9] was 1.73 µM (inactive). The GI50 [10] was 1.27 µM (inactive), the GI50 [11] was 0.335 µM (active) and the GI50 [12] was 0.288 µM (active). The GI50 [13] was 0.931 µM, the GI50 [14] was 0.179 µM (active) and the GI50 [15] was 1.66 µM (inactive). The GI50 [16] was 1.26 µM (inactive), the GI50 [17] was 0.665 µM (active) and the GI50 [18] was 1.06 µM (active). For the same compound, the GI50 [19] was 1.28 µM (inactive), the GI50 [20] was 0.213 µM (active) and the GI50 [21] was 0.388 µM (active). The GI50 [22] was 0.243 µM (active), the GI50 [23] was 0.467 µM (active) and the GI50 [24] was 0.461 µM (active). The GI50 [25] was 0.394 µM (active), the GI50 [26] was 0.271 µM (active) and the GI50 [27] was 0.649 µM (active). For the same compound, the GI50 [28] was 0.225 µM (active), the GI50 [29] was 1.41 µM (inactive) and the GI50 [30] was 1.55 µM (inactive). For the same compound, the GI50 [31] was 0.948 µM (active), the GI50 [32] was 0.276 µM (active) and the GI50 [33] was 0.284 µM (active). For the same compound, the GI50 [34] was 1.63 µM (inactive), the GI50 [35] was 1.61 µM (inactive) and the GI50 [36] was 1.53 µM (inactive). The GI50 [37] was 1.72 µM (inactive), the GI50 [38] was 0.935 µM (active) and the GI50 [39] was 1.58 µM (inactive). For the same compound, the GI50 [40] was 0.372 µM (active), the GI50 [41] was 1.42 µM (inactive) and the GI50 [42] was 1.78 µM (inactive). The GI50 [43] was 0.968 µM (active), the GI50 [44] was 0.933 µM (active) and the GI50 [45] was 1.71 µM (inactive). For the same compound, the GI50 [46] was 1.51 µM (inactive), the GI50 [47] was 1.23 µM (inactive) and the GI50 [48] was 1.84 µM (inactive). For the same compound, the GI50 [49] was 0.404 µM (active), the GI50 [50] was 0.935 µM (active) and the GI50 [51] was 1.51 µM (inactive). For the same compound, the GI50 [52] was 0.129 µM (active), the GI50 [53] was 0.501 µM (active) and the GI50 [54] was 1.91 µM (inactive). The GI50 [55] was 1.85 µM (inactive), the GI50 [56] was 0.242 µM (active) and the GI50 [57] was 1.54 µM (inactive). For the same compound, the GI50 [58] was 1.4 µM (inactive) and the GI50 [59] was 1.8 µM (inactive).

For `COC(C)(C)CCc1[nH]c2ccccc2c1CC(=O)NCCc1cncn1C`, the GI50 [1] was > 100 µM (inactive), the GI50 [2] was 34.3 µM (inactive) and the GI50 [3] was > 100 µM (inactive). For the same compound, the GI50 [4] was > 100 µM (inactive), the GI50 [5] was > 100 µM (inactive) and the GI50 [6] was > 100 µM (inactive). The GI50 [7] was > 100 µM (inactive), the GI50 [8] was > 100 µM (inactive) and the GI50 [9] was > 100 µM (inactive). For the same compound, the GI50 [10] was > 100 µM (inactive), the GI50 [11] was > 100 µM (inactive) and the GI50 [12] was > 100 µM (inactive). The GI50 [13] was over 100 µM, the GI50 [14] was > 100 µM (inactive) and the GI50 [16] was > 100 µM (inactive). For the same compound, the GI50 [17] was > 100 µM (inactive), the GI50 [18] was > 100 µM (inactive) and the GI50 [19] was > 100 µM (inactive). For the same compound, the GI50 [20] was > 100 µM (inactive), the GI50 [21] was > 100 µM (inactive) and the GI50 [22] was > 100 µM (inactive). The GI50 [23] was > 100 µM (inactive), the GI50 [24] was > 100 µM (inactive) and the GI50 [25] was > 100 µM (inactive). For the same compound, the GI50 [26] was > 100 µM (inactive), the GI50 [27] was > 100 µM (inactive) and the GI50 [28] was > 100 µM (inactive). The GI50 [29] was > 100 µM (inactive), the GI50 [30] was > 100 µM (inactive) and the GI50 [31] was > 100 µM (inactive). For the same compound, the GI50 [32] was > 100 µM (inactive), the GI50 [33] was > 100 µM (inactive) and the GI50 [34] was > 100 µM (inactive). For the same compound, the GI50 [35] was > 100 µM (inactive), the GI50 [36] was > 100 µM (inactive) and the GI50 [37] was > 100 µM (inactive). For the same compound, the GI50 [38] was > 100 µM (inactive), the GI50 [39] was > 100 µM (inactive) and the GI50 [40] was > 100 µM (inactive). For the same compound, the GI50 [41] was > 100 µM (inactive), the GI50 [42] was > 100 µM (inactive) and the GI50 [44] was > 100 µM (inactive). For the same compound, the GI50 [45] was > 100 µM (inactive), the GI50 [46] was > 100 µM (inactive) and the GI50 [47] was > 100 µM (inactive). The GI50 [48] was > 100 µM (inactive), the GI50 [49] was > 100 µM (inactive) and the GI50 [50] was > 100 µM (inactive). For the same compound, the GI50 [51] was > 100 µM (inactive), the GI50 [52] was > 100 µM (inactive) and the GI50 [53] was > 100 µM (inactive). For the same compound, the GI50 [54] was > 100 µM (inactive), the GI50 [55] was > 100 µM (inactive) and the GI50 [56] was > 100 µM (inactive). The GI50 [57] was > 100 µM (inactive), the GI50 [58] was > 100 µM (inactive) and the GI50 [59] was > 100 µM (inactive).

With `Cc1cn(C2CC(O)C(COP(=O)(O)OC3CC(n4c[n+]([BH2-]C#N)c5c(=O)[nH]c(N)nc54)OC3CO)O2)c(=O)[nH]c1=O` (centres undefined) the GI50 [1] was > 100 µM (inactive), the GI50 [2] was > 100 µM (inactive) and the GI50 [3] was > 100 µM (inactive). The GI50 [4] was > 100 µM (inactive), the GI50 [5] was > 100 µM (inactive) and the GI50 [6] was > 100 µM (inactive). For the same compound, the GI50 [7] was > 100 µM (inactive), the GI50 [8] was > 100 µM (inactive) and the GI50 [9] was > 100 µM (inactive). The GI50 [10] was > 100 µM (inactive), the GI50 [11] was > 100 µM (inactive) and the GI50 [12] was > 100 µM (inactive). For the same compound, the GI50 [13] was over 100 µM, the GI50 [14] was > 100 µM (inactive) and the GI50 [15] was > 100 µM (inactive). For the same compound, the GI50 [16] was > 100 µM (inactive), the GI50 [17] was > 100 µM (inactive) and the GI50 [18] was > 100 µM (inactive). The GI50 [19] was > 100 µM (inactive), the GI50 [20] was > 100 µM (inactive) and the GI50 [21] was > 100 µM (inactive). For the same compound, the GI50 [22] was > 100 µM (inactive), the GI50 [24] was > 100 µM (inactive) and the GI50 [25] was > 100 µM (inactive). The GI50 [26] was > 100 µM (inactive), the GI50 [27] was > 100 µM (inactive) and the GI50 [28] was > 100 µM (inactive). The GI50 [29] was > 100 µM (inactive), the GI50 [30] was > 100 µM (inactive) and the GI50 [31] was > 100 µM (inactive). For the same compound, the GI50 [32] was > 100 µM (inactive), the GI50 [33] was > 100 µM (inactive) and the GI50 [34] was > 100 µM (inactive). The GI50 [35] was > 100 µM (inactive), the GI50 [36] was > 100 µM (inactive) and the GI50 [37] was > 100 µM (inactive). For the same compound, the GI50 [38] was > 100 µM (inactive), the GI50 [39] was > 100 µM (inactive) and the GI50 [40] was > 100 µM (inactive). The GI50 [41] was > 100 µM (inactive), the GI50 [42] was > 100 µM (inactive) and the GI50 [43] was > 100 µM (inactive). The GI50 [44] was > 100 µM (inactive), the GI50 [45] was > 100 µM (inactive) and the GI50 [46] was > 100 µM (inactive). For the same compound, the GI50 [47] was > 100 µM (inactive), the GI50 [48] was > 100 µM (inactive) and the GI50 [49] was > 100 µM (inactive). For the same compound, the GI50 [50] was > 100 µM (inactive), the GI50 [51] was > 100 µM (inactive) and the GI50 [52] was > 100 µM (inactive). The GI50 [53] was > 100 µM (inactive), the GI50 [54] was > 100 µM (inactive) and the GI50 [55] was > 100 µM (inactive). For the same compound, the GI50 [56] was > 100 µM (inactive), the GI50 [57] was > 100 µM (inactive) and the GI50 [58] was > 100 µM (inactive). For the same compound, the GI50 [59] was > 100 µM (inactive).
